Assay results from patent US11098043B2, “Certain imidazopyridines as cyclic AMP response element binding (CREB) binding protein (CBP) inhibitors and uses thereof” (University of Massachusetts, priority 2017, dated 2021).

Assays:
CBP bromodomain = molecular target: T1, CBP bromodomain (Homo sapiens, UniProt Q92793); assay: AlphaScreen in vitro binding assay with CBP; conditions: for IC50: AlphaScreen, isolated CBP bromodomain, means of at least two determinations; for Selectivity Value [BRD4(1) IC50 (μM)/CBP IC50 (μM)]: ratio BRD4(1) IC50 / CBP IC50
T1 construct: docked complex of Compound 21 with CBP bromodomain
T1 sequence (Q92793 1085-1192 limits assumed): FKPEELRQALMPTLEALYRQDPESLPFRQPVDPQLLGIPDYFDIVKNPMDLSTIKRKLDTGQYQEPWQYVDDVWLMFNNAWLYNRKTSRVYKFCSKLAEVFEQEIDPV
Protocol: (§1) To determine the binding selectivity of compounds provided, AlphaScreen in vitro binding assays were performed with either CBP or BRD4.
(§2) Assays were performed with minor modifications from the manufacturer's protocol (Perkin Elmer, USA). All reagents were diluted in AlphaScreen™ buffer (50 mM HEPES, 150 mM NaCl, 0.01% v/v Tween-20, 0.1% w/v BSA, pH 7.4). After addition of Alpha beads to master solutions, all subsequent steps were performed under low light conditions. A 2× solution of components with final concentrations of His-BRD4(1) at 20 nM or His-CBP at 50 nM, Ni-coated Acceptor bead at 10 μg/ml, and biotinylated-JQ1 at 10 nM or biotinylated peptide at 100 nM was added in 10 μL to 384-well plates (AlphaPlate-384, PerkinElmer) using an EL406 liquid handler (Biotek, USA). Plates were spun down at 1000 rpm. A 10-point 1: √{square root over (sqrt(10))} serial dilution of compounds in DMSO was prepared at 200× the final concentration. 100 nL of compound from these stock plates were added by pin transfer using a Janus Workstation (PerkinElmer). A 2× solution of streptavidin-coated donor beads with a final concentration of 10 μg/ml was added in a 10 μL volume. The plates were spun down again at 1000 rpm and sealed with foil to prevent light exposure and evaporation. The plates were then incubated at room temperature for 1 hour and read on an Envision 2104 (PerkinElmer) using the manufacturer's protocol. IC50 values were calculated using a 4-parameter logistic curve in Prism 6 (GraphPad Software, USA) after normalization to DMSO-treated negative control wells.

BRD4(1) bromodomain = molecular target: T2, BRD4(1) bromodomain (Homo sapiens, UniProt O60885); assay: AlphaScreen in vitro binding assay with BRD4; conditions: isolated BRD4 bromodomain, means of at least two determinations
T2 construct: final concentrations of His-BRD4(1) at 20 nM
Protocol: as §1
as §2, with “A 2× solution of components with final concentrations of His-BRD4(1) at 20 nM or His-CBP at 50 nM, Ni-coated Acceptor bead at 10 μg/ml, and biotinylated-JQ1 at 10 nM or biotinylated peptide at 100 nM was added in 10 μL to 384-well plates (AlphaPlate-384, PerkinElmer) using an EL406 liquid handler (Biotek, USA).” left out

IC50 (CBP bromodomain) | Selectivity Value [BRD4(1) IC50 (μM)/CBP IC50 (μM)] (CBP bromodomain) | IC50 (BRD4(1) bromodomain) | Compound
20.9 µM | >2 | – | COc1ccc(CCc2nc3cc(-c4c(C)noc4C)ccn3c2NC(C)(C)CC(C)(C)C)cc1 [Compound 28, 7-(3,5-dimethylisoxazol-4-yl)-2-(4-methoxyphenethyl)-N-(2,4,4-trimethylpentan-2-yl)imidazo[1,2-a]pyridin-3-amine]
1.88 µM | 1 | 2.77 µM | Cc1noc(C)c1-c1ccn2c(NC(C)(C)CC(C)(C)C)c(CCc3ccccc3)nc2c1 [Compound 13, 7-(3,5-dimethylisoxazol-4-yl)-2-phenethyl-N-(2,4,4-trimethylpentan-2-yl)imidazo[1,2-a]pyridin-3-amine]
16.1 µM | >3 | – | COc1ccc(-c2nc3cc(C)cc(C)n3c2NC23CC4CC(CC(C4)C2)C3)cc1 [Compound 1, N-((3s,5s,7s)-adamantan-1-yl)-2-(4-methoxyphenyl)-5,7-dimethylimidazo[1,2-a]pyridin-3-amine]
0.759 µM | 8 | 6.22 µM | COc1ccc(CCc2nc3cc(-c4c(C)noc4C)ccn3c2NC2CCCCC2)cc1OC [Compound 33]
2.22 µM | >23 | – | COc1ccc(-c2nc3cc(-c4c(C)noc4C)ccn3c2NC23CC4CC(CC(C4)C2)C3)cc1 [Compound 2]
1.17 µM | 3 | 2.96 µM | COc1ccc(-c2nc3cc(-c4c(C)noc4C)ccn3c2NCC(=O)OC(C)(C)C)cc1 [Compound 7]
0.956 µM | 6 | 5.64 µM | Cc1noc(C)c1-c1ccn2c(NC(C)(C)C)c(CCc3ccccc3)nc2c1 [Compound 14, N-(tert-butyl)-7-(3,5-dimethylisoxazol-4-yl)-2-phenethylimidazo[1,2-a]pyridin-3-amine]
6.07 µM | 2 | 11.2 µM | COc1ccc(Cc2nc3cc(-c4c(C)noc4C)ccn3c2NC2CCCCC2)cc1 [Compound 26]
0.633 µM | 28 | 17.9 µM | CCCOc1ccc(CCc2nc3cc(-c4c(C)noc4C)ccn3c2NC2CCCCC2)cc1 [Compound 23]
0.923 µM | 8 | 7.11 µM | COc1ccc(CCc2nc3cc(-c4c(C)noc4C)ccn3c2NC23CC4CC(CC(C4)C2)C3)cc1 [Compound 16, N-((3s,5s,7s)-adamantan-1-yl)-7-(3,5-dimethylisoxazol-4-yl)-2-(4-methoxyphenethyl)imidazo[1,2-a]pyridine-3-amine]
0.507 µM | 7 | 3.38 µM | Cc1noc(C)c1-c1ccn2c(NC34CC5CC(CC(C5)C3)C4)c(CCc3ccccc3)nc2c1 [Compound 6]
1.92 µM | 4 | 8.47 µM | COc1ccc(CCc2nc3cc(-c4c(C)noc4C)ccn3c2NCc2ccccc2)cc1 [Compound 24]
2.54 µM | 20 | – | CCOc1ccc(CCc2nc3cc(-c4c(C)noc4C)ccn3c2NC2CCCCC2)cc1Cl [Compound 31]
1.57 µM | 7 | 11 µM | COc1ccc(CCc2nc3cc(-c4c(C)noc4C)ccn3c2N[C@H](C)c2ccccc2)cc1 [Compound 37]
0.718 µM | 10 | 7.43 µM | Cc1noc(C)c1-c1ccn2c(NC3CCCCC3)c(CCc3ccccc3)nc2c1 [Compound 5, N-cyclohexyl-7-(3,5-dimethylisoxazol-4-yl)-2-phenethylimidazo[1,2-a]pyridin-3-amine]
7.83 µM | >6 | – | Cc1noc(C)c1-c1ccn2c(NCC(=O)OC(C)(C)C)c(CCc3ccccc3)nc2c1 [Compound 4]
0.464 µM | 7 | 3.42 µM | COc1ccc(CCc2nc3cc(-c4c(C)noc4C)ccn3c2NCCN2CCOCC2)cc1 [Compound 17]

IC50 (CBP bromodomain) | Selectivity Value [BRD4(1) IC50 (μM)/CBP IC50 (μM)] (CBP bromodomain) | IC50 (BRD4(1) bromodomain) | Compound
8.12 µM | <1 | 7.55 µM | CN1Cc2cc(-c3ccn4c(NC5CCCCC5)c(CCc5ccccc5)nc4c3)ccc2NC1=O [Compound 10]
– | – | 5.19 µM | COc1ccc(CCc2nc3cc(-c4c(C)noc4C)ccn3c2NC2CCCCC2)cc1Cl [Compound 21, 2-(3-chloro-4-methoxyphenethyl)-N-cyclohexyl-7-(3,5-dimethylisoxazol-4-yl)imidazo[1,2-a]pyridin-3-amine]
8.02 µM | <1 | 0.51 µM | Cc1[nH]nc2ccc(-c3ccn4c(NC5CCCCC5)c(CCc5ccccc5)nc4c3)cc12 [Compound 11]
1.61 µM | 5 | 7.95 µM | COc1ccc(CCc2nc3cc(-c4c(C)noc4C)ccn3c2Nc2ccc(Cl)cc2)cc1 [Compound 25]
2.34 µM | >21 | – | COc1ccc(CCc2nc3cc(-c4c(C)noc4C)ccn3c2NC(C)(C)C)cc1 [Compound 20]
> 50 µM | <1 | 3.03 µM | Cc1noc2ccc(-c3ccn4c(NC5CCCCC5)c(CCc5ccccc5)nc4c3)cc12 [Compound 12]
0.214 µM | 30 | 6.48 µM | CCOc1ccc(CCc2nc3cc(-c4c(C)noc4C)ccn3c2NC2CCCCC2)cc1 [Compound 22, N-cyclohexyl-7-(3,5-dimethylisoxazol-4-yl)-2-(4-ethoxyphenethyl)imidazo[1,2-a]pyridin-3-amine]
16.3 µM | >3 | – | COc1ccc(-c2nc3cc(C)cc(C)n3c2NC(C)(C)CC(C)(C)C)cc1 [Compound 8, 2-(4-methoxyphenyl)-5,7-dimethyl-N-(2,4,4-trimethylpentan-2-yl)imidazo[1,2-a]pyridin-3-amine]
38.5 µM | >1 | > 50 µM | CCOc1ccc(CCc2nc3cc(-c4c(C)noc4C)ccn3c2NC(C)(C)CC(C)(C)C)cc1 [Compound 29, 7-(3,5-dimethylisoxazol-4-yl)-2-(4-ethoxyphenethyl)-N-(2,4,4-trimethylpentan-2-yl)imidazo[1,2-a]pyridin-3-amine]
1.55 µM | 3 | 4.22 µM | COc1ccc(CCc2nc3cc(-c4c(C)noc4C)ccn3c2NCC(=O)OC(C)(C)C)cc1 [Compound 15]
– | 1 | – | COc1ccc(CCCc2nc3cc(-c4c(C)noc4C)ccn3c2NC(C)(C)CC(C)(C)C)cc1 [Compound 35]
3.52 µM | 6 | 22.6 µM | COc1ccc(CCc2nc3cc(-c4c(C)noc4C)ccn3c2NC(C)C)cc1OC [Compound 34]
– | 1 | – | Cc1noc(C)c1-c1ccn2c(NC(C)(C)CC(C)(C)C)c(CCc3ccc(OC(C)C)cc3)nc2c1 [Compound 30]
4.95 µM | 3 | 12.3 µM | COc1ccc(CCCc2nc3cc(-c4c(C)noc4C)ccn3c2NC2CCCCC2)cc1 [Compound 27, N-cyclohexyl-7-(3,5-dimethylisoxazol-4-yl)-2-(3-(4-methoxyphenyl)propyl)imidazo[1,2-a]pyridin-3-amine]
20.5 µM | >2 | – | CCOc1ccc(CCc2nc3cc(-c4c(C)noc4C)ccn3c2NC(C)(C)CC(C)(C)C)cc1Cl [Compound 32]
14.2 µM | >4 | – | COc1ccc(-c2nc3cc(-c4c(C)noc4C)ccn3c2NC2CCCCC2)cc1 [Compound 3]

Compound | IC50 (CBP bromodomain) | Selectivity Value [BRD4(1) IC50 (μM)/CBP IC50 (μM)] (CBP bromodomain) | IC50 (BRD4(1) bromodomain)
Cc1sc2c(c1C)C(c1ccc(Cl)cc1)=N[C@@H](CC(=O)OC(C)(C)C)c1nnc(C)n1-2 [JQ1, reference compound] | > 50 µM | – | –
